ChEMBL document CHEMBL6078622, “Enhancing outer membrane permeability of tetracycline antibiotics in P. aeruginosa using TOB-CIP conjugates” (RSC Med Chem, 2024)

How the values were obtained:
Assay type in all cases: functional
Pseudomonas aeruginosa [1] = assay: Antibacterial activity against Pseudomonas aeruginosa PA264 assessed as doxycycline MIC by CLSI based broth-microdilution method
Pseudomonas aeruginosa [2] = assay: Synergistic antibacterial activity against Pseudomonas aeruginosa PA200 assessed as fractional inhibitory concentration index in presence of doxycycline by checkerboard assay
Pseudomonas aeruginosa [3] = assay: Synergistic antibacterial activity against Pseudomonas aeruginosa PA114228 in presence of minocycline by checkerboard assay
Pseudomonas aeruginosa [4] = assay: Antibacterial activity against Pseudomonas aeruginosa PA100036 assessed as doxycycline MIC by CLSI based broth-microdilution method
Pseudomonas aeruginosa [5] = assay: Synergistic antibacterial activity against Pseudomonas aeruginosa PA095 assessed as fold change in eravacycline MIC by CLSI based broth-microdilution method relative to eravacycline alone
Pseudomonas aeruginosa [6] = assay: Synergistic antibacterial activity against Pseudomonas aeruginosa PA100036 in presence of minocycline by checkerboard assay
Pseudomonas aeruginosa [7] = assay: Antibacterial activity against Pseudomonas aeruginosa PA095 assessed as minocycline MIC by CLSI based broth-microdilution method
Pseudomonas aeruginosa [8] = assay: Synergistic antibacterial activity against Pseudomonas aeruginosa PA114228 in presence of eravacycline by checkerboard assay
Pseudomonas aeruginosa [9] = assay: Antibacterial activity against Pseudomonas aeruginosa PA114228 assessed as eravacycline MIC by CLSI based broth-microdilution method
Pseudomonas aeruginosa [10] = assay: Synergistic antibacterial activity against Pseudomonas aeruginosa PA100036 assessed as fractional inhibitory concentration index in presence of tigecycline by checkerboard assay
Pseudomonas aeruginosa [11] = assay: Synergistic antibacterial activity against Pseudomonas aeruginosa PA264 assessed as fold change in minocycline MIC by CLSI based broth-microdilution method relative to minocycline alone
Pseudomonas aeruginosa [12] = assay: Synergistic antibacterial activity against Pseudomonas aeruginosa PA095 assessed as fractional inhibitory concentration index in presence of eravacycline by checkerboard assay
Pseudomonas aeruginosa [13] = assay: Synergistic antibacterial activity against Pseudomonas aeruginosa PA259 assessed as fractional inhibitory concentration index in presence of doxycycline by checkerboard assay
Pseudomonas aeruginosa [14] = assay: Synergistic antibacterial activity against Pseudomonas aeruginosa PA095 assessed as fractional inhibitory concentration index in presence of doxycycline by checkerboard assay
Pseudomonas aeruginosa [15] = assay: Antibacterial activity against Pseudomonas aeruginosa PA100036 assessed as minocycline MIC by CLSI based broth-microdilution method
Pseudomonas aeruginosa [16] = assay: Synergistic antibacterial activity against Pseudomonas aeruginosa PA100036 assessed as fold change in tigecycline MIC by CLSI based broth-microdilution method relative to tigecycline alone
Pseudomonas aeruginosa [17] = assay: Synergistic antibacterial activity against Pseudomonas aeruginosa PA264 assessed as fold change in eravacycline MIC by CLSI based broth-microdilution method relative to eravacycline alone
Pseudomonas aeruginosa [18] = assay: Antibacterial activity against Pseudomonas aeruginosa PA095 assessed as inhibition of visible bacterial growth by CLSI based broth-microdilution method
Pseudomonas aeruginosa [19] = assay: Antibacterial activity against Pseudomonas aeruginosa PA264 assessed as eravacycline MIC by CLSI based broth-microdilution method
Pseudomonas aeruginosa [20] = assay: Synergistic antibacterial activity against Pseudomonas aeruginosa PA264 in presence of doxycycline by checkerboard assay
Pseudomonas aeruginosa [21] = assay: Synergistic antibacterial activity against Pseudomonas aeruginosa PA264 in presence of minocycline by checkerboard assay
Pseudomonas aeruginosa [22] = assay: Synergistic antibacterial activity against Pseudomonas aeruginosa PA200 assessed as fold change in doxycycline MIC by CLSI based broth-microdilution method relative to doxycycline alone
Pseudomonas aeruginosa [23] = assay: Antibacterial activity against Pseudomonas aeruginosa PA095 assessed as eravacycline MIC by CLSI based broth-microdilution method
Pseudomonas aeruginosa [24] = assay: Synergistic antibacterial activity against Pseudomonas aeruginosa PA114228 assessed as fractional inhibitory concentration index in presence of minocycline by checkerboard assay
Pseudomonas aeruginosa [25] = assay: Synergistic antibacterial activity against Pseudomonas aeruginosa PA101243 assessed as fold change in tigecycline MIC by CLSI based broth-microdilution method relative to tigecycline alone
Pseudomonas aeruginosa [26] = assay: Synergistic antibacterial activity against Pseudomonas aeruginosa PA114228 assessed as fractional inhibitory concentration index in presence of tigecycline by checkerboard assay
Pseudomonas aeruginosa [27] = assay: Synergistic antibacterial activity against Pseudomonas aeruginosa PA264 assessed as fractional inhibitory concentration index in presence of minocycline by checkerboard assay
Pseudomonas aeruginosa [28] = assay: Synergistic antibacterial activity against Pseudomonas aeruginosa PA095 assessed as fractional inhibitory concentration index in presence of minocycline by checkerboard assay
Pseudomonas aeruginosa [29] = assay: Synergistic antibacterial activity against Pseudomonas aeruginosa PA101243 assessed as fold change in minocycline MIC by CLSI based broth-microdilution method relative to minocycline alone
Pseudomonas aeruginosa [30] = assay: Synergistic antibacterial activity against Pseudomonas aeruginosa PA100036 assessed as fold change in doxycycline MIC by CLSI based broth-microdilution method relative to doxycycline alone
Pseudomonas aeruginosa [31] = assay: Synergistic antibacterial activity against Pseudomonas aeruginosa PA095 assessed as fold change in doxycycline MIC by CLSI based broth-microdilution method relative to doxycycline alone
Pseudomonas aeruginosa [32] = assay: Synergistic antibacterial activity against Pseudomonas aeruginosa PAO1 assessed as fold change in minocycline MIC by checkerboard analysis relative to minocycline alone
Pseudomonas aeruginosa [33] = assay: Synergistic antibacterial activity against Pseudomonas aeruginosa PA262 in presence of doxycycline by checkerboard assay
Pseudomonas aeruginosa [34] = assay: Synergistic antibacterial activity against Pseudomonas aeruginosa PA100036 assessed as fold change in eravacycline MIC by CLSI based broth-microdilution method relative to eravacycline alone
Pseudomonas aeruginosa [35] = assay: Antibacterial activity against Pseudomonas aeruginosa PA264 assessed as tigecycline MIC by CLSI based broth-microdilution method
Pseudomonas aeruginosa [36] = assay: Synergistic antibacterial activity against Pseudomonas aeruginosa PA114228 in presence of tigecycline by checkerboard assay
Pseudomonas aeruginosa [37] = assay: Synergistic antibacterial activity against Pseudomonas aeruginosa PA264 in presence of eravacycline by checkerboard assay
Pseudomonas aeruginosa [38] = assay: Antibacterial activity against Pseudomonas aeruginosa PA101243 assessed as eravacycline MIC by CLSI based broth-microdilution method
Pseudomonas aeruginosa [39] = assay: Antibacterial activity against Pseudomonas aeruginosa PA200 assessed as doxycycline MIC by CLSI based broth-microdilution method
Pseudomonas aeruginosa [40] = assay: Synergistic antibacterial activity against Pseudomonas aeruginosa PA262 in presence of tigecycline by checkerboard assay
Pseudomonas aeruginosa [41] = assay: Synergistic antibacterial activity against Pseudomonas aeruginosa PA095 assessed as fold change in minocycline MIC by CLSI based broth-microdilution method relative to minocycline alone
Pseudomonas aeruginosa [42] = assay: Antibacterial activity against Pseudomonas aeruginosa PA101243 assessed as tigecycline MIC by CLSI based broth-microdilution method
Pseudomonas aeruginosa [43] = assay: Synergistic antibacterial activity against Pseudomonas aeruginosa PA259 in presence of minocycline by checkerboard assay
Pseudomonas aeruginosa [44] = assay: Synergistic antibacterial activity against Pseudomonas aeruginosa PA264 assessed as fractional inhibitory concentration index in presence of doxycycline by checkerboard assay
Pseudomonas aeruginosa [45] = assay: Antibacterial activity against Pseudomonas aeruginosa PA114228 assessed as doxycycline MIC by CLSI based broth-microdilution method
Pseudomonas aeruginosa [46] = assay: Synergistic antibacterial activity against Pseudomonas aeruginosa PA262 assessed as fractional inhibitory concentration index in presence of eravacycline by checkerboard assay

MIC (Pseudomonas aeruginosa [1]): 0.5 µg/mL
MIC (Pseudomonas aeruginosa [3]): 8 µg/mL
MIC (Pseudomonas aeruginosa [4]): 1 µg/mL
MIC (Pseudomonas aeruginosa [6]): 8 µg/mL
MIC (Pseudomonas aeruginosa [7]): 1 µg/mL
MIC (Pseudomonas aeruginosa [8]): 8 µg/mL
MIC (Pseudomonas aeruginosa [9]): 4 µg/mL
MIC (Pseudomonas aeruginosa [15]): 0.25 µg/mL
MIC (Pseudomonas aeruginosa [18]): 8 µg/mL
MIC (Pseudomonas aeruginosa [19]): 0.125 µg/mL
MIC (Pseudomonas aeruginosa [20]): 8 µg/mL
MIC (Pseudomonas aeruginosa [21]): 8 µg/mL
MIC (Pseudomonas aeruginosa [23]): 1 µg/mL
MIC (Pseudomonas aeruginosa [33]): 8 µg/mL
MIC (Pseudomonas aeruginosa [35]): 0.5 µg/mL
MIC (Pseudomonas aeruginosa [36]): 8 µg/mL
MIC (Pseudomonas aeruginosa [37]): 8 µg/mL
MIC (Pseudomonas aeruginosa [38]): 2 µg/mL
MIC (Pseudomonas aeruginosa [39]): 2 µg/mL
MIC (Pseudomonas aeruginosa [40]): 8 µg/mL
MIC (Pseudomonas aeruginosa [42]): 4 µg/mL
MIC (Pseudomonas aeruginosa [43]): 8 µg/mL
MIC (Pseudomonas aeruginosa [45]): 32 µg/mL
SMILES: Cl.Cl.Cl.Cl.Cl.Cl.NC[C@H]1O[C@H](O[C@H]2[C@H](OCCCCCCCCCCCCNC(=O)c3cn(C4CC4)c4cc(N5CCNCC5)c(F)cc4c3=O)[C@@H](O[C@H]3O[C@H](CO)[C@@H](O)[C@H](N)[C@H]3O)[C@H](N)C[C@@H]2N)[C@H](N)C[C@@H]1O
fractional inhibitory concentration index (FICI) (Pseudomonas aeruginosa [2]): 0.257
fold change (FC) (Pseudomonas aeruginosa [5]): 4
fractional inhibitory concentration index (FICI) (Pseudomonas aeruginosa [10]): 0.002
fold change (FC) (Pseudomonas aeruginosa [11]): 128
fractional inhibitory concentration index (FICI) (Pseudomonas aeruginosa [12]): 0.265
fractional inhibitory concentration index (FICI) (Pseudomonas aeruginosa [13]): 0.008
fractional inhibitory concentration index (FICI) (Pseudomonas aeruginosa [14]): 0.25
fold change (FC) (Pseudomonas aeruginosa [16]): 64
fold change (FC) (Pseudomonas aeruginosa [17]): 64
fold change (FC) (Pseudomonas aeruginosa [22]): 64
fractional inhibitory concentration index (FICI) (Pseudomonas aeruginosa [24]): 0.008
fold change (FC) (Pseudomonas aeruginosa [25]): 4
fractional inhibitory concentration index (FICI) (Pseudomonas aeruginosa [26]): 0.25
fractional inhibitory concentration index (FICI) (Pseudomonas aeruginosa [27]): 0.031
fractional inhibitory concentration index (FICI) (Pseudomonas aeruginosa [28]): 0.5
fold change (FC) (Pseudomonas aeruginosa [29]): 4
fold change (FC) (Pseudomonas aeruginosa [30]): 128
fold change (FC) (Pseudomonas aeruginosa [31]): 16
fold change (FC) (Pseudomonas aeruginosa [32]): 64
fold change (FC) (Pseudomonas aeruginosa [34]): 256
fold change (FC) (Pseudomonas aeruginosa [41]): 8
fractional inhibitory concentration index (FICI) (Pseudomonas aeruginosa [44]): 0.015
fractional inhibitory concentration index (FICI) (Pseudomonas aeruginosa [46]): 0.062
